Some results are limits rather than exact numbers.

The first assay deals with T1, FAP (Homo sapiens, UniProt Q12884).
T1 construct: Target cells: WI-38 cells (typically 1000-20,000 cells per well); endogenous in cells; host or cells: WI-38 cells
T1 sequence (Q12884 1-760): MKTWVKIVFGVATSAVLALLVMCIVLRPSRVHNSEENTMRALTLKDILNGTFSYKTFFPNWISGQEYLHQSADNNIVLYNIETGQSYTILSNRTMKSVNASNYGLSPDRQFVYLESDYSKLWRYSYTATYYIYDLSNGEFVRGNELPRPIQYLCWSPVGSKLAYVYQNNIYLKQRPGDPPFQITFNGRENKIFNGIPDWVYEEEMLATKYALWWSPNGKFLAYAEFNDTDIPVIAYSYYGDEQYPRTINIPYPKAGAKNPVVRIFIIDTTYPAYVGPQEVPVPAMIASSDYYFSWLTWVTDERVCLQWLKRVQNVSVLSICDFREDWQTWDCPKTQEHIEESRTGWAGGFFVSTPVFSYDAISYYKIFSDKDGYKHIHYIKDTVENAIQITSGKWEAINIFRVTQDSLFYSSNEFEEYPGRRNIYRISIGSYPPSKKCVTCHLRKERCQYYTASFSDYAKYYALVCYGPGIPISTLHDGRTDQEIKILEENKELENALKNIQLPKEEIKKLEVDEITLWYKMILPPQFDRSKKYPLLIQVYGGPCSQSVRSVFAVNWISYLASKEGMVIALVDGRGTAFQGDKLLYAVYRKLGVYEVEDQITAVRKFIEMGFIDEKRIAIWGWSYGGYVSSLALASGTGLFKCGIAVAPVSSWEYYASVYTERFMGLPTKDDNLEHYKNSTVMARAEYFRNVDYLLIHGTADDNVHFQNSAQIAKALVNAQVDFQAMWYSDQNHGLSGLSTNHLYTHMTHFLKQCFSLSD
In words: Antibody dependent cellular cytotoxicity (ADCC) reporter assay. On the set-up: key to ADCC Reporter Assay pEC50: Inactive = pEC50 < 5. The assay is classed as cell-based. Conditions: WI-38 target cells; Jurkat FcγRIIIa NFAT-luciferase reporter cells; with anti-cotinine antibody (SEQ ID NO: 11/12); 12-18 hours; average if more than one run. On the procedure:
An antibody dependent cellular cytotoxicity (ADCC) reporter assay was conducted using the following four assay components: (i) ARM compound of Formula (I) targeting FAP (concentrations ranging from […]); (ii) anti-cotinine antibody having a heavy chain sequence of SEQ ID NO: 11 and a light chain sequence of SEQ ID NO: 12 (rabbit variable region with human IgG1 Fc domain containing DE mutation (S239D/I332E)) (concentrations ranging from 0.01 μg/mL 200 μg/mL); (iii) Target cells: WI-38 cells (typically 1000-20,000 cells per well); and (iv) Reporter cells—Jurkat cells engineered to express FcγRIIIa with a reporter gene luciferase under the control of the NFAT promoter (typically 3000-75,000 cells per well). Reagents were combined in final volume of 20 μL in 384—well tissue culture treated plate. All four assay components were incubated together for about 12-18 hours. Thereafter, BioGlo Detection reagent (Promega) was added to the wells to lyse the cells and provide a substrate for the luciferase reporter protein.
Luminescence signal was measured on a microplate reader capable of measuring luminescence and signal:background was calculated by dividing the signal of a test well by the signal obtained when no compound of formula (I) was included in the assay. EC50 calculations were done using Graphpad Prism Software, specifically a nonlinear regression curve fit (Y=Bottom+(Top−Bottom)/(1+10^((Log EC50−X)*HillSlope))).
ARMs compounds of Formula (I) were tested for ADCC activity in the above assay in one or more experimental runs and the results are shown in Table 3 below. Potency of the compounds of Formula (I) is reported as a pEC50 values. The pEC50 value is the negative log of the EC50 value, wherein the EC50 value is half maximal effective concentration measured in molar (M). For compounds tested in more than one experimental run, the pEC50 value is reported as an average.
In the case of `CN(CCNC(=O)[C@H]1CC[C@H](NC(=O)[C@H]2CC[C@H](NC(=O)CCCO[C@H]3CC[C@H](OCCNC(=O)[C@H]4CC(=O)N(C)[C@@H]4c4cccnc4)CC3)CC2)CC1)c1ccc2nccc(C(=O)NCC(=O)N3CC(F)(F)C[C@H]3C#N)c2c1` [Example 2, N-(2-((S)-2-cyano-4,4-difluoropyrrolidin-1-yl)-2-oxoethyl)-6-(methyl(2-((1R,4r)-((1R,4R)-4-(4-(((1S,4R)-4-(2-((2S,3S)-1-methyl-5-oxo-2-(pyridin-3-yl)pyrrolidine-3-carboxamido)ethoxy)cyclohexyl)oxy)butanamido)cyclohexane-1-carboxamido)cyclohexane-1-carboxamido)ethyl)amino)quinoline-4-carboxamide], the “ADCC Reporter Assay pEC50” value was “Inactive^1”.
Still for that read-out and setting: under `CN(CCNC(=O)CCCO[C@H]1CC[C@H](OCCNC(=O)[C@H]2CC[C@H](NC(=O)CCCO[C@H]3CC[C@H](OCCNC(=O)[C@H]4CC(=O)N(C)[C@@H]4c4cccnc4)CC3)CC2)CC1)c1ccc2nccc(C(=O)NCC(=O)N3CC(F)(F)C[C@H]3C#N)c2c1` [Example 3, N-(2-((S)-2-cyano-4,4-difluoropyrrolidin-1-yl)-2-oxoethyl)-6-(methyl(2-(4-(((1R,4r)-4-(2-((1R,4R)-4-(4-(((1S,4R)-4-(2-((2S,3S)-1-methyl-5-oxo-2-(pyridin-3-yl)pyrrolidine-3-carboxamido)ethoxy)cyclohexyl)oxy)butanamido)cyclohexane-1-carboxamido)ethoxy)cyclohexyl)oxy)butanamido)ethyl)amino)quinoline-4-carboxamide] stands “Inactive”; under `CN(CCNC(=O)[C@H]1CC[C@H](NC(=O)CCCO[C@H]2CC[C@H](OCCNC(=O)[C@H]3CC(=O)N(C)[C@@H]3c3cccnc3)CC2)CC1)c1ccc2nccc(C(=O)NCC(=O)N3CC(F)(F)C[C@H]3C#N)c2c1` [Example 4, N-(2-((S)-2-cyano-4,4-difluoropyrrolidin-1-yl)-2-oxoethyl)-6-(methyl(2-((1R,4r)-4-(4-(((1S,4R)-4-(2-((2S,3S)-1-methyl-5-oxo-2-(pyridin-3-yl)pyrrolidine-3-carboxamido)ethoxy)cyclohexyl)oxy)butanamido)cyclohexane-1-carboxamido)ethyl)amino)quinoline-4-carboxamide], “Inactive”.
As for `CN(CCNC(=O)CCOCCOCCOCCOCCOCCOCCOCCOCCOCCOCCOCCOCCNC(=O)[C@H]1CC(=O)N(C)[C@@H]1c1cccnc1)c1ccc2nccc(C(=O)NCC(=O)N3CC(F)(F)C[C@H]3C#N)c2c1` [Example 5, N-(2-((S)-2-cyano-4,4-difluoropyrrolidin-1-yl)-2-oxoethyl)-6-(methyl(1-((2S,3S)-1-methyl-5-oxo-2-(pyridin-3-yl)pyrrolidin-3-yl)-1,41-dioxo-5,8,11,14,17,20,23,26,29,32,35,38-dodecaoxa-2,42-diazatetratetracontan-44-yl)amino)quinoline-4-carboxamide], the “ADCC Reporter Assay pEC50” value was “Inactive”.

The same assay, now with this note: WI-38 target cells; Jurkat FcγRIIIa NFAT-luciferase reporter cells; with anti-cotinine antibody (SEQ ID NO: 11/12); 12-18 hours; average if more than one run; read-out: ADCC Reporter Assay pEC50 (converted).
With `CN(CCNC(=O)[C@H]1CC[C@H](NC(=O)CCCO[C@H]2CC[C@H](OCCNC(=O)[C@H]3CC[C@H](NC(=O)CCCO[C@H]4CC[C@H](OCCNC(=O)[C@H]5CC(=O)N(C)[C@@H]5c5cccnc5)CC4)CC3)CC2)CC1)c1ccc2nccc(C(=O)NCC(=O)N3CC(F)(F)C[C@@H]3C#N)c2c1` (racemic) [Example 1, N-(2-((S)-2-Cyano-4,4-difluoropyrrolidin-1-yl)-2-oxoethyl)-6-(methyl(2-((1R,4R)-4-(4-(((1R,4R)-4-(2-((1R,4R)-4-(4-(((1 S,4R)-4-(2-((2S,3S)-1-methyl-5-oxo-2-(pyridin-3-yl)pyrrolidine-3-carboxamido)ethoxy)cyclohexyl)oxy)butanamido)cyclohexane-1-carboxamido)ethoxy)cyclohexyl)oxy)butanamido)cyclohexane-1-carboxamido)ethyl)amino) quinoline-4-carboxamide], the EC50 was 3.98 nM.
For the compound `CN(CCNC(=O)CCOCCOCCOCCOCCOCCOCCOCCOCCOCCOCCOCCOCCOCCOCCOCCOCCOCCOCCOCCOCCNC(=O)[C@H]1CC(=O)N(C)[C@@H]1c1cccnc1)c1ccc2nccc(C(=O)NCC(=O)N3CC(F)(F)C[C@H]3C#N)c2c1` [Example 6, N-(2-((S)-2-cyano-4,4-difluoropyrrolidin-1-yl)-2-oxoethyl)-6-(methyl(1-((2S,3S)-1-methyl-5-oxo-2-(pyridin-3-yl)pyrrolidin-3-yl)-1,65-dioxo-5,8,11,14,17,20,23,26,29,32,35,38,41,44,47,50,53,56,59,62-icosaoxa-2,66-diazaoctahexacontan-68-yl)amino)quinoline-4-carboxamide], the EC50 is 12.6 nM.
For the compound `CN(CCNC(=O)CCOCCOCCOCCOCCOCCOCCOCCOCCOCCOCCOCCOCCOCCOCCOCCOCCOCCOCCOCCOCCOCCOCCOCCOCCNC(=O)[C@H]1CC(=O)N(C)[C@@H]1c1cccnc1)c1ccc2nccc(C(=O)NCC(=O)N3CC(F)(F)C[C@H]3C#N)c2c1` [Example 7, N-(2-((S)-2-Cyano-4,4-difluoropyrrolidin-1-yl)-2-oxoethyl)-6-(methyl(1-((2S,3S)-1-methyl-5-oxo-2-(pyridin-3-yl)pyrrolidin-3-yl)-1,77-dioxo-5,8,11,14,17,20,23,26,29,32,35,38,41,44,47,50,53,56,59,62,65,68,71,74-tetracosaoxa-2,78-diazaoctacontan-80-yl)amino)quinoline-4-carboxamide], the EC50 is 5.01 nM.
Consider `CN1C(=O)C[C@H](C(=O)NCCOCCOCCOCCOCCOCCOCCOCCOCCOCCOCCOCCOCCOCCOCCOCCNC(=O)COc2ccc3nccc(C(=O)NCC(=O)N4CCC[C@@H]4C#N)c3c2)[C@H]1c1cccnc1` [Example 8, N-(2-((R)-2-cyanopyrrolidin-1-yl)-2-oxoethyl)-6-((1-((2S,3S)-1-methyl-5-oxo-2-(pyridin-3-yl)pyrrolidin-3-yl)-1,51-dioxo-5,8,11,14,17,20,23,26,29,32,35,38,41,44,47-pentadecaoxa-2,50-diazadopentacontan-52-yl)oxy)quinoline-4-carboxamide], for which the EC50 is 3.98 nM.
Turning to `CN1C(=O)C[C@H](C(=O)NCCOCCOCCOCCOCCOCCOCCOCCOCCOCCOCCOCCOCCOCCOCCOCCOc2ccc3c(C(=O)NCC(=O)N4CCC[C@H]4C#N)ccnc3c2)[C@H]1c1cccnc1` [Example 9, N-(2-((S)-2-cyanopyrrolidin-1-yl)-2-oxoethyl)-7-((1-((2S,3S)-1-methyl-5-oxo-2-(pyridin-3-yl)pyrrolidin-3-yl)-1-oxo-5,8,11,14,17,20,23,26,29,32,35,38,41,44,47-pentadecaoxa-2-azanonatetracontan-49-yl)oxy)quinoline-4-carboxamide], the EC50 was greater than 1000 nM.
Consider `CN1C(=O)C[C@H](C(=O)NCCOCCOCCOCCOCCOCCOCCOCCOCCOCCOCCOCCOCCOCCOCCOCCNC(=O)COc2ccc3c(C(=O)NCC(=O)N4CCC[C@H]4C#N)ccnc3c2)[C@H]1c1cccnc1` [Example 10, N-(2-((S)-2-cyanopyrrolidin-1-yl)-2-oxoethyl)-7-((1-((2S,3S)-1-methyl-5-oxo-2-(pyridin-3-yl)pyrrolidin-3-yl)-1,51-dioxo-5,8,11,14,17,20,23,26,29,32,35,38,41,44,47-pentadecaoxa-2,50-diazadopentacontan-52-yl)oxy)quinoline-4-carboxamide], for which the EC50 was greater than 1000 nM.
